According to US7842695B2, “Substituted pyrazole compounds” (Merck Patent GmbH, priority 2003, dated 2010):

Assays:
5 HT2C receptor = molecular target: T1, 5 HT2C receptor (Homo sapiens, UniProt P28335); assay: affinity to the 5 HT2C receptor; format: binding
T1 sequence (P28335 33-458): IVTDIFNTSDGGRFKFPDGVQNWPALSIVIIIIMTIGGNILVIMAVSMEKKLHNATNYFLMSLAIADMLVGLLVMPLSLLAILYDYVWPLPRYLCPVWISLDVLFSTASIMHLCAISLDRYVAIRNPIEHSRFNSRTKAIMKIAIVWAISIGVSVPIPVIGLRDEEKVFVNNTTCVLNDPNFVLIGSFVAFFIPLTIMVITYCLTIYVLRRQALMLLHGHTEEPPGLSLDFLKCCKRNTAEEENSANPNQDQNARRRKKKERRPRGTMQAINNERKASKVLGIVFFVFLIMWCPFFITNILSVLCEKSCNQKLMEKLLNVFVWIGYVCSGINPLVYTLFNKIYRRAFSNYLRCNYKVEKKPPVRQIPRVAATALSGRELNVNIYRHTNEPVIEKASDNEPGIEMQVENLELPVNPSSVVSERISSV

5-HT2A receptors = 5-HT2A receptors (UniProt P14842); assay: in-vitro affinity to 5-HT2A receptors, [3H]ketanserine displacement (Example A1); format: binding
Excerpt: The 5-HT2A receptors are exposed both to [^3H]ketanserine (a substance known for its affinity to the receptor) and also to the test compound. The decrease in the affinity of [^3H]ketanserine to the receptor is an indication of the affinity of the test substance to the 5-HT2A receptor.

In the case of `COc1ccccc1-c1c(CN2CCN(C)CC2)cnn1-c1ccc(-c2ccccc2F)cc1` [Example 647, 1-[1-(2′-Fluorobiphenyl-4-yl)-5-(2-methoxyphenyl)-1H-pyrazol-4-ylmethyl]-4-methylpiperazine], the IC50 (5 HT2C receptor) is reported as 840 nM and the IC50 (5-HT2A receptors) is reported as 52 nM.

`CN(C)Cc1cnn(-c2ccc(-c3ccc(F)cc3)cc2)c1-c1ccoc1` [Example 576, [1-(4′-Fluorobiphenyl-4-yl)-5-furan-3-yl-1H-pyrazol-4-ylmethyl]dimethylamine] showed an IC50 (5 HT2C receptor) of 180 nM and an IC50 (5-HT2A receptors) of 16 nM.

`Cc1ccc(-c2ccc(-n3ncc(CN4CCN(C)CC4)c3-c3ccccc3F)cc2)cc1F` [Example 625, 1-[1-(3′-Fluoro-4′-methylbiphenyl-4-yl)-5-(2-fluorophenyl)-1H-pyrazol-4-ylmethyl]-4-methylpiperazine] showed an IC50 (5 HT2C receptor) of 620 nM and an IC50 (5-HT2A receptors) of 36 nM.

With `CN(C)Cc1cnn(-c2ccc(-c3cccc(F)c3)cc2)c1-c1ccco1` [Example 538, [1-(3′-Fluorobiphenyl-4-yl)-5-furan-2-yl-1H-pyrazol-4-ylmethyl]dimethylamine] the IC50 (5 HT2C receptor) was 170 nM and the IC50 (5-HT2A receptors) was 3.4 nM.

`CN(C)CCN(C)Cc1cnn(-c2ccc(-c3ccc(F)cc3)cc2)c1-c1ccco1` [Example 635, N-[1-(4′-Fluorobiphenyl-4-yl)-5-furan-2-yl-1H-pyrazol-4-ylmethyl]-N,N′,N′-trimethylethane-1,2-diamine] was tested, and the IC50 (5 HT2C receptor) was 1000 nM and the IC50 (5-HT2A receptors) was 41 nM.

For `c1coc(-c2c(CN3CCNCC3)cnn2-c2ccc(-c3ccc4c(c3)OCCO4)cc2)c1` [Example 595, 1-{1-[4-(2,3-Dihydrobenzo-1,4-dioxin-6-yl)phenyl]-5-furan-2-yl-1H-pyrazol-4-ylmethyl}piperazine], the IC50 (5 HT2C receptor) was 150 nM and the IC50 (5-HT2A receptors) was 22 nM.

In the case of `CCN(CC)Cc1cnn(-c2ccc(-c3ccc4c(c3)OCCO4)cc2)c1-c1ccco1` [Example 630, {1-[4-(2,3-Dihydrobenzo-1,4-dioxin-6-yl)phenyl]-5-furan-2-yl-1H-pyrazol-4-ylmethyl}diethylamine], the IC50 (5 HT2C receptor) is reported as 900 nM and the IC50 (5-HT2A receptors) is reported as 38 nM.

`Fc1cccc(-c2ccc(-n3ncc(CN4CCNCC4)c3-c3ccco3)cc2)c1` [Example 541, 1-[1-(3′-Fluorobiphenyl-4-yl)-5-furan-2-yl-1H-pyrazol-4-ylmethyl]piperazine] was tested, and the IC50 (5 HT2C receptor) was 150 nM and the IC50 (5-HT2A receptors) was 3.6 nM.

`CCN1CCN(Cc2cnn(-c3ccc(-c4ccc5c(c4)OCCO5)cc3)c2-c2ccco2)CC1` [Example 557, 1-{1-[4-(2,3-Dihydrobenzo-1,4-dioxin-6-yl)phenyl]-5-furan-2-yl-1H-pyrazol-4-ylmethyl}-4-ethylpiperazine] showed an IC50 (5 HT2C receptor) of 349 nM and an IC50 (5-HT2A receptors) of 8 nM.

`CN(C)CCN(C)Cc1cnn(-c2ccc(-c3ccc(F)cc3)cc2)c1-c1cccc(Cl)c1` [Example 639, N-[5-(3-Chlorophenyl)-1-(4′-fluorobiphenyl-4-yl)-1H-pyrazol-4-ylmethyl]-N,N′,N′-trimethylethane-1,2-diamine] showed an IC50 (5 HT2C receptor) of 1000 nM and an IC50 (5-HT2A receptors) of 43 nM.

For `COc1ccc(-c2ccc(-n3ncc(CN4CCN(C)CC4)c3-c3ccccc3F)cc2)cc1OC` [Example 644, 1-[1-(3′,4′-Dimethoxybiphenyl-4-yl)-5-(2-fluorophenyl)-1H-pyrazol-4-ylmethyl]-4-methylpiperazine], the IC50 (5 HT2C receptor) was 1000 nM and the IC50 (5-HT2A receptors) was 49 nM.

For `CN1CCN(Cc2cnn(-c3ccc(-c4ccc(F)cc4)cc3)c2-c2ccco2)CC1` [Example 532, 1-[1-(4′-Fluorobiphenyl-4-yl)-5-furan-2-yl-1H-pyrazol-4-ylmethyl]-4-methylpiperazine], the IC50 (5 HT2C receptor) was 190 nM and the IC50 (5-HT2A receptors) was 1.48 nM.

Work on `CN1CCN(Cc2cnn(-c3ccc(-c4ccc(F)cc4)cc3)c2-c2ccsc2)CC1` [Example 556, 1-[1-(4′-Fluorobiphenyl-4-yl)-5-thiophen-3-yl-1H-pyrazol-4-ylmethyl]-4-methylpiperazine] yielded an IC50 (5 HT2C receptor) of 630 nM and an IC50 (5-HT2A receptors) of 7.8 nM.

Work on `COc1ccc(-c2ccc(-n3ncc(CN4CCN(C)CC4)c3-c3ccco3)cc2)cc1` [Example 546, 1-[5-Furan-2-yl-1-(4′-methoxybiphenyl-4-yl)-1H-pyrazol-4-ylmethyl]-4-methylpiperazine] yielded an IC50 (5 HT2C receptor) of 360 nM and an IC50 (5-HT2A receptors) of 4.8 nM.

`Fc1cccc(-c2ccc(-n3ncc(CN4CCN(C5CCCC5)CC4)c3-c3ccco3)cc2)c1` [Example 605, 1-Cyclopentyl-4-[1-(3′-fluorobiphenyl-4-yl)-5-furan-2-yl-1H-pyrazol-4-ylmethyl]piperazine] gave an IC50 (5 HT2C receptor) of 2940 nM and an IC50 (5-HT2A receptors) of 26.8 nM.

`CN1CCN(C(=O)c2cnn(-c3ccccc3)c2NC(=O)c2ccccc2F)CC1` [Example 640] was tested, and the IC50 (5 HT2C receptor) was 1000 nM and the IC50 (5-HT2A receptors) was 44 nM.

`Fc1ccc(-c2ccc(-n3ncc(CN4CCN(C5CCCC5)CC4)c3-c3ccco3)cc2)cc1` [Example 545, 1-Cyclopentyl-4-[1-(4′-fluorobiphenyl-4-yl)-5-furan-2-yl-1H-pyrazol-4-ylmethyl]piperazine] was tested, and the IC50 (5 HT2C receptor) was 2000 nM and the IC50 (5-HT2A receptors) was 4.8 nM.

With `OC1CCN(Cc2cnn(-c3ccc(-c4ccc5c(c4)OCO5)cc3)c2-c2ccco2)C1` (stereo not shown) [Example 548, 1-[1-(4-Benzo-1,3-dioxol-5-ylphenyl)-5-furan-2-yl-1H-pyrazol-4-ylmethyl]pyrrolidin-3-ol] the IC50 (5 HT2C receptor) was 410 nM and the IC50 (5-HT2A receptors) was 5.1 nM.

Work on `COc1ccc(-c2ccc(-n3ncc(CN4CCC(O)C4)c3-c3ccco3)cc2)cc1` (stereo not shown) [Example 564, 1-[5-Furan-2-yl-1-(4′-methoxybiphenyl-4-yl)-1H-pyrazol-4-ylmethyl]pyrrolidin-3-ol] yielded an IC50 (5 HT2C receptor) of 630 nM and an IC50 (5-HT2A receptors) of 10 nM.

`CCN(CC)Cc1cnn(-c2ccc(-c3ccc4c(c3)OCO4)cc2)c1-c1ccco1` [Example 602, [1-(4-Benzo-1,3-dioxol-5-ylphenyl)-5-furan-2-yl-1H-pyrazol-4-ylmethyl]diethylamine] gave an IC50 (5 HT2C receptor) of 610 nM and an IC50 (5-HT2A receptors) of 26 nM.

Compound `c1coc(-c2c(CN3CCN(C4CCCC4)CC3)cnn2-c2ccc(-c3ccc4c(c3)OCCO4)cc2)c1` [Example 554, 1-Cyclopentyl-4-{1-[4-(2,3-dihydrobenzo-1,4-dioxin-6-yl)phenyl]-5-furan-2-yl-1H-pyrazol-4-ylmethyl}piperazine] has an IC50 (5 HT2C receptor) of 1300 nM and an IC50 (5-HT2A receptors) of 7 nM.

`CN1CCN(Cc2cnn(-c3ccc(-c4cccc(F)c4)cc3)c2-c2ccco2)CC1` [Example 559, 1-[1-(3′-Fluorobiphenyl-4-yl)-5-furan-2-yl-1H-pyrazol-4-ylmethyl]-4-methylpiperazine] gave an IC50 (5 HT2C receptor) of 250 nM and an IC50 (5-HT2A receptors) of 8.8 nM.

`CC(C)(C)OC(=O)N1CCN(Cc2cnn(-c3ccc(-c4ccc5c(c4)OCO5)cc3)c2-c2ccco2)CC1` [Example 547, tert-Butyl 4-[1-(4-benzo-1,3-dioxol-5-ylphenyl)-5-furan-2-yl-1H-pyrazol-4-ylmethyl]piperazine-1-carboxylate] showed an IC50 (5 HT2C receptor) of 1000 nM and an IC50 (5-HT2A receptors) of 4.8 nM.

Work on `COc1ccc(-c2ccc(-n3ncc(CN4CCN(C)CC4)c3-c3ccccc3F)cc2)cc1F` [Example 585, 1-[1-(3′-Fluoro-4′-methoxybiphenyl-4-yl)-5-(2-fluorophenyl)-1H-pyrazol-4-ylmethyl]-4-methylpiperazine] yielded an IC50 (5 HT2C receptor) of 760 nM and an IC50 (5-HT2A receptors) of 19 nM.

`CN(C)Cc1cnn(-c2ccc(-c3ccc4c(c3)OCO4)cc2)c1-c1ccco1` [Example 531, [1-(4-Benzo-1,3-dioxol-5-ylphenyl)-5-furan-2-yl-1H-pyrazol-4-ylmethyl]dimethylamine] was tested, and the IC50 (5 HT2C receptor) was 74 nM and the IC50 (5-HT2A receptors) was 1.4 nM.

For `CN1CCN(Cc2cnn(-c3ccc(-c4cccc(F)c4)cc3)c2-c2ccccc2F)CC1` [Example 549, 1-[1-(3′-Fluorobiphenyl-4-yl)-5-(2-fluorophenyl)-1H-pyrazol-4-ylmethyl]-4-methylpiperazine], the IC50 (5 HT2C receptor) was 460 nM and the IC50 (5-HT2A receptors) was 5.4 nM.

With `CN1CCN(Cc2cnn(-c3ccc(-c4ccc5c(c4)OCCO5)cc3)c2-c2ccco2)CC1` [Example 535, 1-{1-[4-(2,3-Dihydrobenzo-1,4-dioxin-6-yl)phenyl]-5-furan-2-yl-1H-pyrazol-4-ylmethyl}-4-methylpiperazine] the IC50 (5 HT2C receptor) was 350 nM and the IC50 (5-HT2A receptors) was 2.3 nM.

`COc1cccc(-c2c(CN(C)C)cnn2-c2ccc(-c3ccc(F)cc3)cc2)c1` [Example 592, [1-(4′-Fluorobiphenyl-4-yl)-5-(3-methoxyphenyl)-1H-pyrazol-4-ylmethyl]dimethylamine] gave an IC50 (5 HT2C receptor) of 510 nM and an IC50 (5-HT2A receptors) of 20 nM.

In the case of `CCN1CCN(Cc2cnn(-c3ccc(-c4ccc5c(c4)OCO5)cc3)c2-c2ccco2)CC1` [Example 533, 1-[1-(4-Benzo-1,3-dioxol-5-ylphenyl)-5-furan-2-yl-1H-pyrazol-4-ylmethyl]-4-ethylpiperazine], the IC50 (5 HT2C receptor) is reported as 224 nM and the IC50 (5-HT2A receptors) is reported as 1.6 nM.

With `OC1CCN(Cc2cnn(-c3ccc(-c4ccc(F)cc4)cc3)c2-c2cccc(Cl)c2)C1` (stereo not shown) [Example 618, 1-[5-(3-Chlorophenyl)-1-(4′-fluorobiphenyl-4-yl)-1H-pyrazol-4-ylmethyl]pyrrolidin-3-ol] the IC50 (5 HT2C receptor) was 1000 nM and the IC50 (5-HT2A receptors) was 33 nM.

In the case of `CN1CCN(Cc2cnn(-c3ccc(-c4ccc(Cl)s4)cc3)c2-c2ccccc2F)CC1` [Example 589, 1-[1-[4-(5-Chlorothiophen-2-yl)phenyl]-5-(2-fluorophenyl)-1H-pyrazol-4-ylmethyl]-4-methylpiperazine], the IC50 (5 HT2C receptor) is reported as 2800 nM and the IC50 (5-HT2A receptors) is reported as 20 nM.

Compound `COc1ccc(-c2ccc(-n3ncc(CN4CCNCC4)c3-c3ccco3)cc2)cc1` [Example 530, 1-[5-Furan-2-yl-1-(4′-methoxybiphenyl-4-yl)-1H-pyrazol-4-ylmethyl]piperazine] has an IC50 (5 HT2C receptor) of 200 nM and an IC50 (5-HT2A receptors) of 1.1 nM.
